Assay results: patent US12479784B2, “Trisphenol derivative” (HONSHU CHEMICAL INDUSTRY CO., LTD., priority 2020, dated 2025)

Tests used:
[1] = Evaluation Test 1: Solubility at 30° C. in ethyl lactate; type: physicochemical; conditions: for Solubility (g/100 g, 30° C.): in ethyl lactate, stirred 3 hours, HPLC quantification
Experimental: (4) Conditions of solubility measurement and analysis of comparative compounds (x) and (y)
<Evaluation Test 1: Solubility at 30° C.>
For compound (C1) and compound (C2) obtained in Examples and the following two compounds having six functional groups likewise and reported as crosslinking agents, the solubility at 30° C. in ethyl lactate widely used as a resist solvent was measured. The following compounds are referred to as “comparative compound (x)” and “comparative compound (y)”.
A cross-shaped stirrer and 10 g of ethyl lactate were added to a 100 ml test tube, and after 10 g of comparative compound (x) (or (y)) was added, a siphon was attached. Under nitrogen purge, the test tube was set in a pre-conditioned water bath at 30° C. and stirred with the stirrer for 3 hours. After the stirring for 3 hours, the internal solution was sampled with a pipette, and solids were filtered off from the sampled solution through a syringe filter to put a filtrate in a 50 ml measuring flask. This was diluted to the 50 ml mark with methanol for HPLC and analyzed with a high-performance liquid chromatography analyzer. From the results obtained, comparative compound (x) (or (y)) in the filtrate was quantified using the peak area of comparative compound (x) (or (y)), and the solubility (=quantitative value (mg) of comparative compound (x) or (y)/(weight (mg) of filtrate put in 50 ml measuring flask through syringe filter-quantitative value (mg) of comparative compound (x) or (y)) was calculated.
Method of constructing calibration curve: comparative compound (x) (or (y)) used in the test was analyzed by HPLC, and an approximate straight line obtained by plotting the peak area of comparative compound (x) (or (y) on the horizontal axis and the concentration (mg/50 ml) of comparative compound (x) (or (y)) on the vertical axis with “intercept=0” was used as a calibration curve of comparative compound (x) (or (y)).

[2] = Evaluation Test 2: Low-temperature storage stability (dissolution stability) of ethyl lactate solutions; type: physicochemical; parameters: key to Solution storage test 5° C. / Solution storage test −5° C.: ∘: Completely dissolved, and neither precipitation of crystals nor separation of oily components can be visually observed.; x: Precipitation of crystals or separation of oily components can be visually observed; conditions: for Solution storage test −5° C. / Solution storage test 5° C.: ethyl lactate solution; for Solution storage test −5° C.: freezer −5° C.; for Solution storage test −5° C. / Solution storage test 5° C. / Crystallization on storage, in words: 30 days; for Solution storage test 5° C.: refrigerator 5° C.; for Crystallization on storage, in words: ethyl lactate solutions, both at 5° C. and −5° C.
Experimental: <Evaluation Test 2: Low-Temperature Storage Stability (Dissolution Stability)>
In a 50 ml screw tube, 4.29 g of compound (C1), the inventive compound, and 5.71 g of ethyl lactate were placed and mixed, and the screw tube was put in a water bath set at 30° C. and stirred by shaking it by hand. Complete dissolution was visually observed, thus preparing an ethyl lactate solution with a compound (C1) concentration of 42.9 wt %.
In the same manner as for compound (C1), an ethyl lactate solution with a compound (C2) concentration of 40 wt %, an ethyl lactate solution with a compound (C2) concentration of 50 wt %, and an ethyl lactate solution with a compound (y) concentration of 40 wt % were prepared.
These solutions were subjected to solution storage tests in a refrigerator (5° C.) and a freezer (−5° C.) for 30 days.
∘: Completely dissolved, and neither precipitation of crystals nor separation of oily components can be visually observed.
x: Precipitation of crystals or separation of oily components can be visually observed.

SMILES | Solubility (g/100 g, 30° C.) [1] [g/100 g] | Solution storage test −5° C. ([2]; concentration 40.0 wt %) | Solution storage test 5° C. ([2]; concentration 40.0 wt %) | Crystallization on storage, in words [2] | Re-dissolution of precipitated crystals ([2]; test sample with precipitated crystals left at room temperature (22° C.) for one day) | Solubility in ethyl lactate relative to comparative compound (x) ([1]; ethyl lactate) | Solubility in ethyl lactate relative to comparative compound (y) ([1]; ethyl lactate) | Solubility (g/100 g, 30° C.) ([1]; listed as compound (C2)) | Solution storage test −5° C. ([2]; concentration 50.0 wt %) | Solution storage test 5° C. ([2]; concentration 50.0 wt %)
COCc1cc(C(C)(c2cc(COC)c(O)c(COC)c2)c2cc(COC)c(O)c(COC)c2)cc(COC)c1O [(y), reference compound] | 84.0 | x | x | experienced crystal precipitation | did not dissolve again |  |  |  |  | 
COCc1cc(C(C)(C)c2ccc(C(C)(c3cc(COC)c(O)c(COC)c3)c3cc(COC)c(O)c(COC)c3)cc2)cc(COC)c1O [Comparative compound (x), reference compound] | 38.7 |  |  |  |  |  |  |  |  | 
COCc1cc(CCC(C)(c2cc(COC)c(O)c(C3CCCCC3)c2)c2cc(COC)c(O)c(C3CCCCC3)c2)cc(COC)c1O [Compound (C2)] | > 100 | ∘ | ∘ | did not crystallize at all |  | more than twice higher | more soluble | more than 100.0 g/100 g | ∘ | ∘
